Here are results for five molecules from PubChem BioAssay (NCI).

Holding throughout (test): NCI-60 cell line screen, 48 h
Experiment [1] deals with OVCAR-8 ovarian.
The test system of experiment [2] is HOP-92 NSCLC.
Experiment [3] deals with A549 NSCLC.
Experiment [4] relates to SNB-75 CNS.
Experiment [5] concerns PC-3 prostate.
Experiment [6] deals with M14 melanoma.
In experiment [7] the test system is HOP-62 NSCLC.
Experiment [8] concerns IGROV1 ovarian.
The subject of experiment [9] is HS 578T breast.
In experiment [10] the test system is MALME-3M melanoma.
The test system of experiment [11] is MOLT-4 leukemia.
The test system of experiment [12] is SK-OV-3 ovarian.
Experiment [13] relates to OVCAR-3 ovarian.
Experiment [14] deals with COLO 205 colon.
The test system of experiment [15] is HCC-2998 colon.
Experiment [16] concerns U251 CNS.

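Step 1: Grow cells in 96-well plates. Step 2: Expose to compound for 48 hours at 5 concentrations. Step 3: Interpolate endpoints linearly; if unreached, use highest concentration. TGI denotes the concentration required for complete inhibition of growth.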

On to `N#Cc1c(-c2ccc([N+](=O)[O-])cc2)cc(-c2ccc(Nc3ccnc4cc(C(F)(F)F)ccc34)cc2)nc1N`, for which the TGI in [1] was over 60.2 µM; in experiment [2], 42 µM; in [3] it was 26.8 µM; in experiment [4], 49.8 µM; in [5], 56.9 µM; in experiment [6] it was 36.4 µM. Further, the TGI in experiment [7] was 51.3 µM; in experiment [8], 29 µM; in experiment [9], 66.1 µM; in [10], over 62.8 µM; in experiment [11] it was 14.5 µM; in experiment [12], over 71.6 µM. In addition, the TGI in experiment [13] is 29.3 µM; in [14], over 75.9 µM; in [15], over 55.4 µM; in experiment [16] it was 21.9 µM.

As to `CN(C)CCNc1ccc2c(=O)n(CCN(C)C)c(=O)n3c4ccc([N+](=O)[O-])cc4c(=O)c1c23`, the TGI is 3.99 µM in experiment [1]; 3.33 µM in experiment [2]; 2.26 µM in [3]; 1.26 µM in experiment [4]; 2.43 µM in [5]; 2.38 µM in [6]. Moreover, the TGI in experiment [7] amounted to 3.85 µM; in experiment [8], 1.29 µM; in experiment [9], 3.09 µM; in [10] it was 1.37 µM; in [11] it was 0.0685 µM; in experiment [12], 6.72 µM. In addition, the TGI in [13] stood at 2.27 µM; in experiment [14] it was 2.12 µM; in [15] it was 2.27 µM; in [16] it was 2.88 µM.

As to `COc1ccc(-c2csc(=Nc3ccccc3)n2CC(O)c2ccc([N+](=O)[O-])cc2)cc1` (stereo not given), the TGI in [1], in experiment [2], in [3], in experiment [4], in [5] and in experiment [6] was over 100 µM throughout. The TGI in [7], in experiment [8], in [9], in experiment [10], in experiment [11] and in experiment [12] was over 100 µM in each case. Also, the TGI in [13], in experiment [14], in experiment [15] and in experiment [16] was over 100 µM throughout.

Regarding `CCCCCNc1nonc1N`, the TGI in experiment [1], in experiment [2], in experiment [3], in experiment [4], in [5] and in experiment [6] was over 100 µM in each case. Moreover, the TGI in experiment [7], in [8], in experiment [9], in experiment [10], in [11] and in experiment [12] was over 100 µM in each case. The TGI in [13], in experiment [14], in experiment [15] and in [16] was over 100 µM throughout.

For the molecule `CC(C)(C)c1ccc(-c2nc3ccc([N+](=O)[O-])cc3c(=O)o2)cc1`, the TGI in [1] was 83.9 µM; in experiment [2] it was 55.2 µM; in [3], over 100 µM; in experiment [4], 66.1 µM; in experiment [5], 72.5 µM; in [6], over 100 µM. Further, the TGI was 60.9 µM in [7]; over 100 µM in [8]; 80.8 µM in experiment [9]; 75 µM in experiment [10]; 46.4 µM in [11]; 95.7 µM in experiment [12]. Further, the TGI in [13] amounted to 81.1 µM; in [14] it was 71.9 µM; in experiment [15], 33 µM; in experiment [16], 43.4 µM.
